# In patent US6518290B1, “Substituted oxazoles and thiazoles derivatives as HPPAr alpha activators” (priority 1999, dated 2003):
# Legend:
# human PPAR delta = target: T1, human PPAR delta (Homo sapiens, UniProt Q03181); assay: PPAR transient transfection (transactivation) assay in CV-1 cells, PPAR delta; assay type: cell-based; settings: PPAR LBD-GAL4 chimera, SPAP reporter, 24 h with compound, read-out: human δEC50
# T1 construct: expressed in transfected cells; host or cells: CV-1 cells
# T1 sequence (Q03181 211-439 limits assumed): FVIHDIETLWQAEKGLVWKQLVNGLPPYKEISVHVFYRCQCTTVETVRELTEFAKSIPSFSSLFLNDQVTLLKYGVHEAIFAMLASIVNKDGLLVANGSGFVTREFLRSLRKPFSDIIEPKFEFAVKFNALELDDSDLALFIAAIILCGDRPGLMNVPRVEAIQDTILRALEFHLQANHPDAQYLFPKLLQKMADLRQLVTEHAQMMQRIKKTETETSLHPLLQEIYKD
# Source text: (§1) Compounds were screened for functional potency in transient transfection assays in CV-1 cells for their ability to activate the PPAR subtypes (transactivation assay). A previously established chimeric receptor system was utilized to allow comparison of the relative transcriptional activity of the receptor subtypes on the same target gene and to prevent endogenous receptor activation from complicating the interpretation of results. See, for example, Lehmann, J. M.; Moore, L. B.; Smith-Oliver, T. A.; Wilkison, W. O.; Willson, T. M.; Kliewer, S. A., An antidiabetic thiazolidinedione is a high affinity ligand for peroxisome proliferator-activated receptor γ (PPARγ), J. Biol. Chem., 1995, 270, 12953-6. The ligand binding domains for murine and human PPAR alpha, PPAR gamma, and PPAR delta were each fused to the yeast transcription factor GAL4 DNA binding domain. CV-1 cells were transiently transfected with expression vectors for the respective PPAR chimera along with a reporter construct containing five copies of the GAL4 DNA binding site driving expression of secreted placental alkaline phosphatase (SPAP) and β-galactosidase. After 16 h, the medium was exchanged to DME medium supplemented with 10% delipidated fetal calf serum and the test compound at the appropriate concentration. After an additional 24 h, cell extracts were prepared and assayed for alkaline phosphatase and β-galactosidase activity. Alkaline phosphatase activity was corrected for transfection efficiency using the β-galactosidase activity as an internal standard (see, for example, Kliewer, S. A., et. al. Cell 83, 813-819 (1995)). Rosiglitazone (BRL 49653) was used as a positive control in the hPPAR gamma assay. The positive control in the hPPAR alpha assays was 2-(2-methyl-3-[3-{3-(4-cyclohexylamino)-[6-(4-fluorophenylpiperazin-1-yl)][1,3,5]triazin-2-ylamino}propyl]phenylthio)-2-methylpropionic acid. The positive control for PPAR delta assays was 2-{2-methyl-4-[({4-methyl-2-{trifluoromethyl)phenyl]-1,3-thiazol-5-yl}methyl)sulfanyl]phenoxy}acetic acid.
# human PPAR alpha = target: T2, human PPAR alpha (Homo sapiens, UniProt Q07869); assay: PPAR transient transfection (transactivation) assay in CV-1 cells, hPPAR alpha; assay type: cell-based; settings: PPAR LBD-GAL4 chimera, SPAP reporter, 24 h with compound, read-out: human αEC50
# T2 construct: expressed in transfected cells; host or cells: CV-1 cells
# T2 sequence (Q07869 239-466 limits assumed): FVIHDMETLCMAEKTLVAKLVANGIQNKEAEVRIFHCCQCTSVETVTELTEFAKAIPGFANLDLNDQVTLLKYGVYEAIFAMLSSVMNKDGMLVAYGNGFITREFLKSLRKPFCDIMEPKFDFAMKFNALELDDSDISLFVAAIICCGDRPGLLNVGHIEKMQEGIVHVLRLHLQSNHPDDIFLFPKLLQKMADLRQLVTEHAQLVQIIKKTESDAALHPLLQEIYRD
# Source text: as §1, with “Alkaline phosphatase activity was corrected for transfection efficiency using the β-galactosidase activity as an internal standard (see, for example, Kliewer, S. A., et. al. Cell 83, 813-819 (1995)).” left out
# human PPAR gamma = target: T3, human PPAR gamma (Homo sapiens, UniProt P37231); assay: PPAR transient transfection (transactivation) assay in CV-1 cells, hPPAR gamma; assay type: cell-based; settings: PPAR LBD-GAL4 chimera, SPAP reporter, 24 h with compound, read-out: human γEC50
# T3 construct: expressed in transfected cells; host or cells: CV-1 cells
# T3 sequence (P37231 238-503 limits assumed): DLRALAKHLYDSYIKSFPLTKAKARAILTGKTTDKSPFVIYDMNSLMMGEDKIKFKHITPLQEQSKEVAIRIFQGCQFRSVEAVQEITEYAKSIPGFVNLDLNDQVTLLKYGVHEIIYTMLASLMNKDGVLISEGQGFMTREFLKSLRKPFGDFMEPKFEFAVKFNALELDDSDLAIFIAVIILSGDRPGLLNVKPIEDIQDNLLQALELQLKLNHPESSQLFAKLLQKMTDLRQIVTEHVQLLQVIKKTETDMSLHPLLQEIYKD
# Source text: as §1
EC50 (human PPAR delta),EC50 (human PPAR alpha),EC50 (human PPAR gamma),melting point,SMILES
≥ 10000 nM,44 nM,≥ 10000 nM,159 °C,"Cc1nc(-c2ccc(F)cc2)sc1C(=O)NCc1ccc(OC(C)(C)C(=O)O)cc1 [Example 31, 2-Methyl-2-[4-{[(4-methyl-2-[4-fluorophenyl]-thiazol-5-ylcarbonyl)amino]methyl}phenoxy]propionic Acid]"
1000 nM,10 nM,≥ 10000 nM,–,"COc1cc(CNC(=O)c2sc(-c3ccc(C(F)(F)F)cc3)nc2C)ccc1OC(C)(C)C(=O)O [Example 49, 2-Methyl-2-[2-methoxy-4-{[(4-methyl-2-[4-trifluoromethylphenyl]-thiazol-5-ylcarbonyl)amino]methyl}phenoxy]propionic Acid]"
